Laboratory results from the NIST ThermoML archive (doi:10.1021/je101304x).
Numbers after ± are expanded uncertainties.

Details: Liquid, Ebulliometric method (Recirculating still)

## C=C(C)C(C)C [2,3-dimethyl-1-butene]
341.87 K
  vapor or sublimation pressure: 153.7 ± 1.3 kPa
343.06 K
  vapor or sublimation pressure: 158.1 ± 1.5 kPa
343.95 K
  vapor or sublimation pressure: 162.3 ± 1.3 kPa
345.83 K
  vapor or sublimation pressure: 171.3 ± 1.3 kPa
347.12 K
  vapor or sublimation pressure: 178.2 ± 1.4 kPa
348.71 K
  vapor or sublimation pressure: 186.4 ± 1.4 kPa
350.49 K
  vapor or sublimation pressure: 196.3 ± 1.4 kPa
352.78 K
  vapor or sublimation pressure: 208.6 ± 1.4 kPa
353.27 K
  vapor or sublimation pressure: 211.3 ± 1.7 kPa
354.06 K
  vapor or sublimation pressure: 216.3 ± 1.5 kPa
356.15 K
  vapor or sublimation pressure: 228.9 ± 1.5 kPa
358.73 K
  vapor or sublimation pressure: 244.9 ± 1.5 kPa
361.3 K
  vapor or sublimation pressure: 262.1 ± 1.6 kPa
362.89 K
  vapor or sublimation pressure: 273.7 ± 1.7 kPa
363.19 K
  vapor or sublimation pressure: 275.3 ± 1.9 kPa
364.38 K
  vapor or sublimation pressure: 284.9 ± 1.6 kPa
365.57 K
  vapor or sublimation pressure: 292.7 ± 1.7 kPa
366.96 K
  vapor or sublimation pressure: 303.8 ± 1.8 kPa
368.24 K
  vapor or sublimation pressure: 313.9 ± 1.7 kPa
369.04 K
  vapor or sublimation pressure: 319.7 ± 1.7 kPa
370.13 K
  vapor or sublimation pressure: 328.6 ± 1.8 kPa
371.12 K
  vapor or sublimation pressure: 336.4 ± 1.8 kPa
372.21 K
  vapor or sublimation pressure: 346.1 ± 1.9 kPa
372.9 K
  vapor or sublimation pressure: 351.5 ± 2.2 kPa
373.7 K
  vapor or sublimation pressure: 358.8 ± 1.9 kPa
374.59 K
  vapor or sublimation pressure: 366.7 ± 1.9 kPa
375.19 K
  vapor or sublimation pressure: 372.1 ± 1.9 kPa
375.78 K
  vapor or sublimation pressure: 377.4 ± 1.9 kPa
376.87 K
  vapor or sublimation pressure: 386.8 ± 1.9 kPa
377.37 K
  vapor or sublimation pressure: 391.7 ± 2 kPa

## c1ccccc1 [benzene]
403.15 K
  vapor or sublimation pressure: 379.3 ± 4.1 kPa

## C1CCCCC1 [cyclohexane]
403.15 K
  vapor or sublimation pressure: 362.8 ± 3.9 kPa

## CO [methanol]
333.42 K
  vapor or sublimation pressure: 85.4 ± 1.2 kPa
334.56 K
  vapor or sublimation pressure: 89.5 ± 1.2 kPa
337.65 K
  vapor or sublimation pressure: 101.3 ± 1.2 kPa
342.17 K
  vapor or sublimation pressure: 120.9 ± 1.3 kPa
343.06 K
  vapor or sublimation pressure: 124.8 ± 1.5 kPa
346.64 K
  vapor or sublimation pressure: 142.6 ± 1.4 kPa
350.25 K
  vapor or sublimation pressure: 163.2 ± 1.5 kPa
353.17 K
  vapor or sublimation pressure: 181 ± 1.5 kPa
353.27 K
  vapor or sublimation pressure: 181.7 ± 1.7 kPa
356.35 K
  vapor or sublimation pressure: 202.7 ± 1.6 kPa
358.91 K
  vapor or sublimation pressure: 221.3 ± 1.7 kPa
361.45 K
  vapor or sublimation pressure: 241.4 ± 1.8 kPa
363.19 K
  vapor or sublimation pressure: 255.9 ± 2.1 kPa
363.85 K
  vapor or sublimation pressure: 261.6 ± 1.9 kPa
366.88 K
  vapor or sublimation pressure: 288.9 ± 2 kPa
370.13 K
  vapor or sublimation pressure: 321.3 ± 2.1 kPa
372.04 K
  vapor or sublimation pressure: 341.2 ± 2.3 kPa
372.9 K
  vapor or sublimation pressure: 350.9 ± 2.4 kPa
375.89 K
  vapor or sublimation pressure: 385.4 ± 2.3 kPa
